Laboratory results as given in patent US6117859A, “Method of relieving chronic inflammation by using 5-alkylsulfonylsalicylanilides” (The Research Foundation of State University of New York, priority 1999, dated 2000).
Entries after “also recorded” stand apart in the source; their conditions may differ.

What was measured:
[1] = Solubility of representative compounds in various solvent systems; format: physicochemical
Experimental: The solubility of representative compounds of this invention in various solvent systems was determined. The solvents included ethanol, propylene glycol, SLS, Tween 80™ and combinations thereof.

[2] = test system: TPA induced mouse ear edema; assay: Acute TPA mouse ear inflammation assay, edema (ear weight); format: in vivo
Source text: (§1) The anti-inflammatory effect of selected compounds of this invention were compared to those of Triclosan™ and hydrocortisone in a modified […] (TPA) mouse ear inflammation assay. TPA was used as an inflammogen rather than croton oil because TPA gives a well characterized inflammatory response at very low concentrations. […] This model can therefore be used to study the pharmacokinetics, clinical efficacy and adverse side effects of anti-inflammatory agents. To quantitate inflammation, ear punches from treated animals were used to measure increased ear mass (edema) and myeloperoxidase (MPO) activity. For the inhibition studies, ear biopsies were weighed six hours after treatment with TPA and the simultaneous application of the compound of the present invention. All the compounds were diluted in acetone. Following this, the biopsies were frozen and subsequently used to measure inhibition of MPO activity, an estimate of polymorphonuclear (PMN) […] activity in the affected area. Percent inhibition of edema was calculated as [c-t]/c x 100, where c and t are increases in ear weight in control and treated mice, respectively.
Initially a dose-response curve for TPA-induced mouse ear edema was generated in order to determine the concentration of TPA to be employed in the inhibition studies. TPA produced a theoretical dose-response curve for edema with an ED50 of 80 ng/ear and an ED90 of 200 ng/ear in two separate experiments. ED50 is the dose at which 50% of the maximum effect was observed while ED90 is the dose at which 90% of the maximum effect was observed. […] The ED50 values for the compounds tested are as follows: […]

[3] = test system: myeloperoxidase (MPO); assay: Myeloperoxidase (MPO) activity in ear biopsies, acute TPA mouse ear assay; format: in vivo
Source text: as §1
As a confirmation of the anti-inflammatory activity and in an attempt to further define the mechanism of inhibition produced by the alkylsulfonylsalicylanilides, MPO activity was measured in representative ear biopsies. The enzyme was extracted from the tissue by using a combination of homogenization in the presence of a detergent, freezing and thawing, and sonication. The change in absorbance was measured with time using o-dianisidine and H2 O2 as the substrate in an automated plate reader. As shown below, TPA-induced increase in MPO was inhibited in TMF-12 treated ears at a dose approximately 10-fold less than that which inhibited edema.

[4] = test system: ear weight gain produced by multiple doses of TPA in mice; assay: Chronic (multiple dose) TPA mouse ear inflammation assay, ear weight gain; format: in vivo, mouse (female CD-1)
Experimental: The acute skin inflammation model described in Example 1, tests the ability of a compound to prevent inflammation and thus must be applied prophylactically. Most clinical situations, however, are present as chronic inflammatory conditions. […] The effects of the compounds of the present invention and Salifluor on chronically inflamed skin was measured in the mouse ear model that utilizes multiple TPA doses over a 10-day period to produce the inflammatory response.
The assay used female CD-1 mice (7-9 weeks of age). Following a 2-week quarantine, mice were randomly assigned to test groups (5 mice/groups). TPA (10 uL of 0.01 TPA in acetone) was administered to both the inner and outer surface of each ear (2μg/ear) on day 0,2,4,7, and 9 on protocol. On Day 7,8 and 9, two applications of test article were applied to each ear 2 and 4 hours after dosing with TPA. The test articles were administered in 10 uL aliquots to both the inner and outer surface of each ear (20 μl total/dose). […] Hydrocortisone-17-valerate (HCV, 20μg/ear) was employed as a positive control. Mice were sacrificed at Day 10 on protocol and uniform punch biopsies (approximately 8 mm dia.) were taken from each ear. While on protocol, dermal irritation was scored semiquantitatively at Day 1,3,5,8, and 10.
Inhibition of TPA stimulated increased ear weight was used as an initial measure of efficacy for all of the agents tested. One biopsy from each mouse was also quick frozen and stored at -70° C. for later assay of myleoperoxidase, an enzyme associated with infiltrating PMN, or other measure of efficacy. The remaining biopsy from each mouse treated with Trifluorosal or HCV was fixed in formalin and processed for histopathologic evaluation, including measurement of cellular infiltration (PMNs, endothelial cells, macrophages) and epidermal thickness at 20 random sites along the length of the specimen.
Initially, a dose-response curve for multiple doses of TPA to produce mouse ear weight gain was generated in order to determine the concentration of TPA to be employed in the inhibition studies. […] Another major difference between the multiple TPA dose (or chronic assay for inflammation) and the single TPA dose (or acute assay for inflammation) in the mouse ear is sensitivity to Non-steroidal antiinflammatory drugs (NSAIDs) and antihistamines.

[5] = Single dose oral tolerance in rats; format: in vivo, rat (male weaning Sprague-Dawley); settings: single dose 2.5 or 0.75 g/kg in 5% CMC, 7 days
Experimental: To test for tolerance of the administered compounds, male weaning Sprague-Dawley rats were fed in a single dose of 2.5 or 0.75 g/kg of TMF-12, TMF-10, TMC-10 or TPC-10 in 5% carboxymethyl cellulose (CMC) or CMC alone. […] At completion of the 7 day observation period, necropsies were performed on all animals.

[6] = Lipophilicity; format: physicochemical; settings: compared with AMCF3-8
Source text: By the term "partition coefficient" as used herein for the purposes of specification and claims is meant the log10 P where P is the ratio of the molar concentrations of the compositions of the composition in octanol-water system. Partition coefficient is a measure of the lipophilic character of the compound. A partition coefficient of 4 therefore means that the ratio of the concentration of the composition in octanol to the concentration in water is 10^4 or 10,000 to 1.

CCCCCCCCCCCCS(=O)(=O)c1ccc(O)c(C(=O)Nc2cccc(C(F)(F)F)c2)c1 [TMF-12]
solubility ([1]; +0.5% tween 80): 1340 µg/mL
solubility ([1]; +1% sls): 1660 µg/mL
solubility ([1]; +1.5% tween 80): 4290 µg/mL
solubility ([1]; +2% SLS + 0.5% Tween 80): 3540 µg/mL
solubility ([1]; +2% SLS + 1.0% Tween 80): 4010 µg/mL
solubility ([1]; +2% SLS + 2.0% Tween 80): 5860 µg/mL
solubility ([1]; +2% sls): 2930 µg/mL
solubility ([1]; +3.0% tween 80): 8340 µg/mL
solubility ([1]; +4% sls): 5740 µg/mL
solubility ([1]; aqueous buffer, pH 10 Na-buffer @ 22° C.): < 0.1 µg/mL
Solubility in anionic and nonionic surfactant solutions relative to AMCF3-8 ([1]; compared with AMCF3-8): greater solubility than AMCF3-8
solubility ([1]; organic solvent or mixture, Ethanol, 22° C.): 13600 µg/mL
solubility ([1]; organic solvent or mixture, Propylene Glycol @ 20° C.): 6660 µg/mL
solubility ([1]; ph 10 na-buffer +0.5% sls, pH 10 Na-buffer @ 22° C. +0.5% SLS): 1280 µg/mL
ID50 edema ([2]; acute assay): 18 μg/ear
Inhibition of TPA induced mouse ear edema (in words) ([2]; acute assay): inhibited TPA induced mouse ear edema in a dose-dependent fashion
Relative anti-inflammatory potency (in words) ([2]; acute assay): most potent of all; also recorded: more potent than AMCF3-8
Relative anti-inflammatory potency (in words) ([2]; acute assay, listed as Trifluorosal): the most potent 5-(n-alkylsulfonyl)salicylanilide in this assay
Potency relative to Salifluor ([2]; acute edema assay): ten
MPO Activity ([3]; TMF-12 0.8 mg/20 ml): 590.2 D OD/min
MPO Activity ([3]; TMF-12 1.24 mg/20 ml): 327.3 D OD/min
MPO Activity ([3]; TMF-12 8 mg/20 ml): 56.5 D OD/min
MPO Activity ([3]; TMF-12 12.4 mg/20 ml): 54.8 D OD/min
MPO Activity ([3]; TMF-12 80 mg/20 ml): 27.6 D OD/min
MPO Activity ([3]; TMF-12 124 mg/20 ml): 21 D OD/min
Dose inhibiting MPO increase, fold less than dose inhibiting edema ([3]; compared with edema inhibition): approximately 10 fold
Inhibition of ear weight gain ([4]; 500μg/ear, first experiment): 28%
Inhibition of ear weight gain ([4]; 1.25 mg/ear): 37.5%
Inhibition of ear weight gain ([4]; 2.5 mg/ear): 27.3%
Inhibition of ear weight gain ([4]; 5.0 mg/ear (printed 'mc/ear' for Trifluorosal)): 34.4%
Activity in chronic assay (in words) ([4]; 1.25-5 mg/ear, remaining experiments): demonstrated consistent activity
% Inhibition of Ear Weight Gain, Actual ([4]; multiple doses of TPA): 37.3%
% Inhibition of Ear Weight Gain, Relative to Hydrocortisone (HCV) = 100% ([4]; multiple doses of TPA, head prints 1.25 eg/ear): 61.8%
Illness or deaths [5]: No illness or deaths occurred
Lipophilicity relative to AMCF3-8 [6]: more lipophilic than AMCF3-8
